# Test results: patent publication US20240254138A1, “TRICYCLIC PYRIMIDINES AS CYCLIN-DEPENDENT KINASE 7 (CDK7) INHIBITORS” (JANSSEN PHARMACEUTICA NV, priority 2021, published 2024)
# Like-named read-outs stand apart in the source and are kept apart here.
# Tests used:
# [1] = test system: RNA Polymerase II Serine 5 phosphorylation in A549 cells overexpressing CDK7-mutant (C312S); assay: Imaging-based cellular RNA PolII Ser5 phosphorylation assay in A549 cells overexpressing CDK7-mutant (C312S); format: cell-based, human; conditions: for IC50: Homo sapiens; for CDK7_A549 mutant hCDK7(pIC50): A549 cells overexpressing CDK7-mutant (C312S)
# Summary of the method: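 A549 cells overexpressing CDK7 C312S (with endogenous wild-type CDK7) were treated with compound for 3 h at 37 °C in 1% FBS medium. Phospho-Rpb1 CTD Ser5 was immunostained after fixation and imaged. IC50 came from curve fit of % control, normalised to DMSO and 10 μM reference-compound controls.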
# [2] = target: CDK7/cyclinH/MAT1 trimeric complex (Homo sapiens, UniProt P50613); assay: In vitro CDK7 assay, potency of irreversible covalent inhibitors (kinact/KI), coupled PK/LDH ADP readout at 340 nm
# [3] = test system: RNA Polymerase II Serine 5 phosphorylation (Rpb1 CTD, downstream substrate of CDK7) in A549 cells; assay: Imaging-based cellular RNA PolII Ser5 phosphorylation assay in A549 cells; format: cell-based, human; conditions: for IC50: Homo sapiens; for CDK7_A549 Wild-type CDK7 (pIC50): A549 cells
# Summary of the method: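 A549 cells, seeded 1000/well in DMEM with 1% FBS and cultured 20 h, were treated with compound for 3 h at 37 °C. Ser5-phospho-Rpb1 CTD detected by immunofluorescence imaging after fixation and methanol permeabilization; IC50 from curve fit normalized to DMSO and 10 μM reference-compound controls.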
# [4] = A549, A549 cells overexpressing CDK7-mutant (C312S), RNA PolII Ser5 phosphorylation, averaged over all measurements, read-out: CDK7_A549 mutant hCDK7(pIC50) (converted)
# [5] = CDK7 (KI(μM)), […], 1 mM ATP, room temperature, averaged values over all measurements
# [6] = read-out: CDK7 (kinact, s^−1), kinact = maximal rate of inactivation, 1 mM ATP, room temperature, averaged values over all measurements
# [7] = read-out: CDK7 (kinact/KI, M^−1*s^−1), potency of irreversible covalent inhibitors, 1 mM ATP, room temperature, averaged values over all measurements
# [8] = A549, A549 cells, wild-type CDK7, RNA PolII Ser5 phosphorylation, averaged over all measurements, read-out: CDK7_A549 Wild-type CDK7 (pIC50) (converted)
# [9] = read-out: CDK7 (20 nM enz.) (kinact/KI, M^−1*s^−1), 20 nM enzyme
# [10] = RNA PolII Ser5 phosphorylation, averaged over all measurements
# [11] = wild-type CDK7, RNA PolII Ser5 phosphorylation, averaged over all measurements
# [12] = CDK7 (20 nM enz.) (KI, μM), 20 nM enzyme
# [13] = read-out: CDK7 (20 nM enz.) (kinact, s^−1), 20 nM enzyme
# [14] = read-out: CDK7 (20 nM enz.) (kobs/[I], M^−1*s^−1), 20 nM enzyme
# CDK7/cyclinH/MAT1 trimeric complex, sequence (P50613 whole entry): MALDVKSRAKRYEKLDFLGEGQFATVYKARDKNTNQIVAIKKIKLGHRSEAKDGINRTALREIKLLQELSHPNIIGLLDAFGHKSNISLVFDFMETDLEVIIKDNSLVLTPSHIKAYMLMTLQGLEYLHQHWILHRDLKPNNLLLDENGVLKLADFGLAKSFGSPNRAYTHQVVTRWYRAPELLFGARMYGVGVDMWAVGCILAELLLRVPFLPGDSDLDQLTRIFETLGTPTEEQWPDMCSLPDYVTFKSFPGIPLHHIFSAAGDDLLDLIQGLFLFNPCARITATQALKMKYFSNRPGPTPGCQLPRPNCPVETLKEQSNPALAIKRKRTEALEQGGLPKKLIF
# CDK7/cyclinH/MAT1 trimeric complex, sequence (P51946 whole entry partner): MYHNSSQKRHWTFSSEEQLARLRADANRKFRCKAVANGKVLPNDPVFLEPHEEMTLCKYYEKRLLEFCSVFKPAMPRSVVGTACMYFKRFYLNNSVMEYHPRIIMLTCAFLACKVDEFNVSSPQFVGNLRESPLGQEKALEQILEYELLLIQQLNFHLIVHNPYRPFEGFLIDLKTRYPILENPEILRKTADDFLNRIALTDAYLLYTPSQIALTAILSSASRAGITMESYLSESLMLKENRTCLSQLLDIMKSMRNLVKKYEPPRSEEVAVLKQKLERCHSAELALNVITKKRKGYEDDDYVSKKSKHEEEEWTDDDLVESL
# CDK7/cyclinH/MAT1 trimeric complex, sequence (P51948 whole entry partner): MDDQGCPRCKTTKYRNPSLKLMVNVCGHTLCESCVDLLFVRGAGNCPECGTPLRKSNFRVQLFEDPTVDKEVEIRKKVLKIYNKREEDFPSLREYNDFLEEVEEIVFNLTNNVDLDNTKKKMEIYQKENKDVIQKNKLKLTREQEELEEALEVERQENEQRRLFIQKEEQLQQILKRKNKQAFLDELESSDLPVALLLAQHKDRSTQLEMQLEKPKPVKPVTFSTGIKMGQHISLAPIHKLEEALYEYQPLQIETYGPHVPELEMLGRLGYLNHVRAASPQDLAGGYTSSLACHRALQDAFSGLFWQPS
SMILES,"IC50 [1, 4]","IC50 [3, 8]","kinact/KI [2, 9]","Ki [2, 12]","kinact [2, 13]",also measured
C=CC(=O)N1CC(N2CCC(c3ccc4c(c3)Nc3nccc(N5CCC6(CCO6)CC5)c3CO4)CC2)C1 [Compound 46],> 10000 nM,631 nM,,,,"Ki [2, 5]: 0.223 µM; kinact [2, 6]: 0.000102 s⁻¹; kinact/KI [2, 7]: 456 M⁻¹ s⁻¹"
"C=CC(=O)N1CC[C@H](N2CC(c3cc(C#N)c4c(c3)Nc3nccc(N5CCOCC5)c3[C@H](C)O4)C2)C1 (single isomer, unassigned) [Compound 460]",> 10000 nM,1290 nM,14.4 M⁻¹ s⁻¹,,,
C=CC(=O)N1CC(N2CC(c3cc4c(c(C(F)(F)F)n3)OCc3c(N5CCOCC5)ccnc3N4)C2)C1 [Compound 315],,,,,,"CDK7_A549 mutant hCDK7(pIC50) [1, 10]: 5.3; CDK7 (20 nM enz.) (kobs/[I], M^−1*s^−1) ([2]; 20 nM enzyme): 894.649 M⁻¹ s⁻¹; CDK7_A549 Wild-type CDK7 (pIC50) [3, 11]: 7.25"
C=CC(=O)N1CC[C@@H](N2CC(c3cc(C)c4c(c3)Nc3nccc(-c5cnn(C)c5)c3CO4)C2)[C@H](F)C1 (mixture of isomers) [Compound 203],> 10000 nM,81.3 nM,802 M⁻¹ s⁻¹,0.0523 µM,4.19e-05 s⁻¹,
C=CC(=O)N1CC(c2ncc(-c3cc(C)c4c(c3)Nc3nccc(C5CCOCC5)c3CO4)cn2)C1 [Compound 114],> 10000 nM,50.1 nM,543 M⁻¹ s⁻¹,0.0779 µM,4.23e-05 s⁻¹,
O=C(/C=C/CN1CCOCC1)N1CC(N2CCC(c3ccc4c(c3)Nc3nccc(N5CCOCC5)c3CO4)CC2)C1 [Compound 57],> 3980 nM,1200 nM,,,,"Ki [2, 5]: 0.248 µM; kinact [2, 6]: 0.000129 s⁻¹; kinact/KI [2, 7]: 518 M⁻¹ s⁻¹"
CC#CC(=O)N1CCN(C2CCN(c3cc4c(c(C)n3)OCc3c(N5CCOCC5)ccnc3N4)CC2)CC1 [Compound 396],> 10000 nM,93.3 nM,807 M⁻¹ s⁻¹,0.0643 µM,5.18e-05 s⁻¹,
"C=CC(=O)N1CC(N2CC[C@@H](c3ccc4c(c3)Nc3nccc(N5CCOCC5)c3CO4)C[C@@H]2C)C1 (single isomer, unassigned) [Compound 74]",> 10000 nM,77.6 nM,,,,"kinact/KI [2, 14]: 1040 M⁻¹ s⁻¹"
"C=CC(=O)N1CC(N2CCC(c3ccc4c(c3)Nc3nccc(-c5cnn(C)c5)c3[C@H](C)O4)CC2)C1 (single isomer, unassigned) [Compound 232]",> 10000 nM,4170 nM,11.3 M⁻¹ s⁻¹,10.1 µM,0.000115 s⁻¹,
CC#CC(=O)N1CCC(N2CC(c3cc4c(c(C5CC5)n3)OCc3c(N5CCOCC5)ccnc3N4)C2)CC1 [Compound 340],,,,0.0486 µM,,"CDK7_A549 mutant hCDK7(pIC50) [1, 10]: 5.43; CDK7 (20 nM enz.) (kinact, s^−1) ([2]; 20 nM enzyme): 2.465e-05 s⁻¹; CDK7 (20 nM enz.) (kinact/KI, M^−1*s^−1) ([2]; 20 nM enzyme): 507.473 M⁻¹ s⁻¹; CDK7_A549 Wild-type CDK7 (pIC50) [3, 11]: 7.37"
"C=CC(=O)N1CC(N2CCC(c3cc(C#N)c4c(c3)Nc3nccc(N5CCOCC5)c3[C@@H](C)O4)CC2)C1 (single isomer, unassigned) [Compound 354]",4570 nM,15.1 nM,,,,"kinact/KI [2, 14]: 2670 M⁻¹ s⁻¹"
"CC#CC(=O)N1CC(N2CC(c3cc4c(c(C)n3)O[C@H](C)c3c(N5CCOCC5)ccnc3N4)C2)C1 (single isomer, unassigned) [Compound 440]",,,,0.205 µM,,"CDK7_A549 mutant hCDK7(pIC50) [1, 10]: <5; CDK7 (20 nM enz.) (kinact, s^−1) ([2]; 20 nM enzyme): 0.000050424 s⁻¹; CDK7 (20 nM enz.) (kinact/KI, M^−1*s^−1) ([2]; 20 nM enzyme): 246.333 M⁻¹ s⁻¹; CDK7_A549 Wild-type CDK7 (pIC50) [3, 11]: 6.79"
C=CC(=O)N1CCC(N2CC(c3cc4c(c(C)n3)OCc3c(N5CCOCC5)ccnc3N4)C2)CC1 [Compound 165],,,,0.0638 µM,,"IC50 ([1]; A549, read-out: CDK7_A549 mutant hCDK7(pIC50) (converted)): 6030 nM; kinact ([2]; read-out: CDK7 (20 nM enz.) (kinact, s^−1)): 5.16e-05 s⁻¹; kinact/KI ([2]; read-out: CDK7 (20 nM enz.) (kinact/KI, M^−1*s^−1)): 808 M⁻¹ s⁻¹; IC50 ([3]; A549, read-out: CDK7_A549 Wild-type CDK7 (pIC50) (converted)): 57.5 nM"
C=CC(=O)N1CC(N2CC(c3ccc4c(c3)Nc3nccc(-c5cnn(C)c5)c3CO4)C2)C1 [Compound 176],> 10000 nM,186 nM,1440 M⁻¹ s⁻¹,0.0372 µM,5.38e-05 s⁻¹,
C=CC(=O)N1CC(N2[C@@H]3CC[C@H]2C[C@@H](c2ccc4c(c2)Nc2nccc(N5CCOCC5)c2CO4)C3)C1 [Compound 49],~10000 nM,53.7 nM,,,,"kinact/KI [2, 14]: 1150 M⁻¹ s⁻¹; kinact/KI [2, 7]: 990 M⁻¹ s⁻¹"
C#CCCN(C)C/C=C/C(=O)N1CC(N2CCC(c3cc(C)c4c(c3)Nc3nccc(N5CCOCC5)c3CO4)CC2)C1 [Compound 122],> 10000 nM,69.2 nM,,,,"kinact/KI [2, 14]: 1660 M⁻¹ s⁻¹"
CC#CC(=O)N1CCC(N2CC(c3cc4c(c(C5CC5)n3)OCc3c(N5CCOCC5)ccnc3N4)C2)CC1 [Compound 335],3630 nM,55 nM,486 M⁻¹ s⁻¹,0.0383 µM,1.86e-05 s⁻¹,
"C=CC(=O)N1CC(N2CCC[C@H](c3ccc4c(c3)Nc3nccc(N5CCOCC5)c3CO4)C2)C1 (single isomer, unassigned) [Compound 93]",> 10000 nM,447 nM,589 M⁻¹ s⁻¹,0.0862 µM,5.07e-05 s⁻¹,
"CC#CC(=O)N1CC(N2CCC(c3cc4c(c(C)n3)O[C@H](C)c3c(N5CCOCC5)ccnc3N4)CC2)C1 (single isomer, unassigned) [Compound 510]",,,,0.052 µM,,"CDK7_A549 mutant hCDK7(pIC50) [1, 10]: <5; CDK7 (20 nM enz.) (kinact, s^−1) ([2]; 20 nM enzyme): 3.092e-05 s⁻¹; CDK7 (20 nM enz.) (kinact/KI, M^−1*s^−1) ([2]; 20 nM enzyme): 594.812 M⁻¹ s⁻¹; CDK7_A549 Wild-type CDK7 (pIC50) [3, 11]: 6.72"
"CC#CC(=O)N1CC(n2cc(-c3cc4c(c(C)n3)O[C@@H](C)c3c(N5CCOCC5)ccnc3N4)cn2)C1 (single isomer, unassigned) [Compound 437]",> 10000 nM,170 nM,282 M⁻¹ s⁻¹,0.0822 µM,2.31e-05 s⁻¹,
"C=CC(=O)N1CC[C@H](N2CC(c3cc(C)c4c(c3)Nc3nccc(N5CCOCC5)c3CO4)C2)C1 (single isomer, unassigned) [Compound 329]",> 10000 nM,79.4 nM,1570 M⁻¹ s⁻¹,0.0243 µM,3.81e-05 s⁻¹,
C=CC(=O)N1CC(C#Cc2ccc3c(c2)Nc2nccc(C4CCOCC4)c2CO3)C1 [Compound 33],> 10000 nM,603 nM,,,,"Ki [2, 5]: 0.15 µM; kinact [2, 6]: 0.000158 s⁻¹; kinact/KI [2, 7]: 1050 M⁻¹ s⁻¹"
C=CC(=O)N1CC(N2CCC(c3cc(Cl)c4c(c3)Nc3nccc(N5CCS(=O)(=O)CC5)c3CO4)CC2)C1 [Compound 115],,,,0.0486 µM,,"CDK7_A549 mutant hCDK7(pIC50) [1, 10]: <5; CDK7 (20 nM enz.) (kinact, s^−1) ([2]; 20 nM enzyme): 5.802e-05 s⁻¹; CDK7 (20 nM enz.) (kinact/KI, M^−1*s^−1) ([2]; 20 nM enzyme): 1193.86 M⁻¹ s⁻¹; CDK7_A549 Wild-type CDK7 (pIC50) [3, 11]: 6.66"
C=CC(=O)N1CC(c2nc(C)c(-c3ccc4c(c3)Nc3nccc(N5CCOCC5)c3CO4)c(C)n2)C1 [Compound 51],> 10000 nM,417 nM,,,,"Ki [2, 5]: 0.0706 µM; kinact [2, 6]: 7.84e-05 s⁻¹; kinact/KI [2, 7]: 1110 M⁻¹ s⁻¹"
"C=CC(=O)N1CC[C@H](N2CCC(c3cc4c(c(C)n3)OCc3c(N5CCOCC5)ccnc3N4)CC2)C1 (single isomer, unassigned) [Compound 283]",> 10000 nM,69.2 nM,381 M⁻¹ s⁻¹,0.187 µM,7.12e-05 s⁻¹,
C=CC(=O)N1CC(N2CCC(c3ccc4c(c3)Nc3nccc(-c5cnn(C)c5)c3CO4)CC2)C1 [Compound 39],> 10000 nM,141 nM,,,,"kinact/KI [2, 7]: 803 M⁻¹ s⁻¹"
C#Cc1cc2c(cc1C1CCN(C3CN(C(=O)C=C)C3)CC1)Nc1nccc(C3CCOCC3)c1C(C)O2 (stereo not drawn) [Compound 169],> 10000 nM,53.7 nM,682 M⁻¹ s⁻¹,0.0532 µM,3.63e-05 s⁻¹,
"C=CC(=O)N1CC[C@H](N2CC(c3cc4c(c(C)n3)O[C@H](C)c3c(C5CCOCC5)ccnc3N4)C2)C1 (single isomer, unassigned) [Compound 422]",> 10000 nM,115 nM,1110 M⁻¹ s⁻¹,0.0415 µM,4.6e-05 s⁻¹,
C=CC(=O)N1CCC(N2CC(c3cc4c(c(C)n3)OCc3c(-c5cnn(C)c5)ccnc3N4)C2)CC1 [Compound 316],,,,0.0898 µM,,"CDK7_A549 mutant hCDK7(pIC50) [1, 10]: 5.32; CDK7 (20 nM enz.) (kinact, s^−1) ([2]; 20 nM enzyme): 2.255e-05 s⁻¹; CDK7 (20 nM enz.) (kinact/KI, M^−1*s^−1) ([2]; 20 nM enzyme): 251.248 M⁻¹ s⁻¹; CDK7_A549 Wild-type CDK7 (pIC50) [3, 11]: 6.97"
"C=CC(=O)N1CC[C@H](N2CC(c3cc(C)c4c(c3)Nc3nccc(N5CCOCC5)c3[C@@H](C)O4)C2)C1 (single isomer, unassigned) [Compound 388]",7240 nM,~22.9 nM,,,,"kinact/KI [2, 14]: 1270 M⁻¹ s⁻¹"
